Reference: patent EP0326331B1, “Substituted quinolines and cinnolines” (Dow AgroSciences LLC, priority 1988, dated 1989)

Columns and labels:
Format in all cases: in vivo
[1] = test system: southern armyworm (Spodopetra eridania Cramer); test: Mite/insect screen, SAW; settings: Spodoptera eridania, foliar, percent mortality, foliar spray on squash, read-out: SAW RESULTS %; for mortality at 200 ppm: rate 200 ppm
Outline: (§1)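 Compounds dissolved in 50:50 acetone/alcohol containing sulfonate/nonionic emulsifier blends, then diluted with water to the indicated concentrations. Leaves sprayed on both surfaces to runoff at 10 psi and dried one hour. Percent mortality scored after standard exposure periods.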

[2] = test system: Puccinia recondita tritici (leaf rust); test: Test 1 greenhouse foliar spray screen, leaf rust on wheat; settings: disease control rating, foliar spray on wheat, 400 ppm (+++ at 100 ppm)
[3] = test system: Septoria tritici (leaf blotch); test: Test 1 greenhouse foliar spray screen, leaf blotch on wheat; settings: disease control rating, foliar spray on wheat, 400 ppm (+++ at 100 ppm)
[4] = test system: Cercospora beticola (leaf spot); test: Test 1 greenhouse foliar spray screen, leaf spot on sugar beet; settings: disease control rating, foliar spray on sugar beet, 400 ppm (+++ at 100 ppm)
[5] = test system: Venturia inaequalis (apple scab); test: Test 1 greenhouse foliar spray screen, apple scab on apple seedling; settings: disease control rating, foliar spray on apple seedling, 400 ppm (+++ at 100 ppm)
[6] = test system: Pyricularia oryzae (rice blast); test: whole plant or invertebrate; settings: disease control rating, foliar spray on rice, 400 ppm (+++ at 100 ppm)
[7] = test system: Botrytis cinerea (gray mold); test: Test 1 greenhouse foliar spray screen, gray mold on grape berries; settings: disease control rating, spray on grape berries, 400 ppm (+++ at 100 ppm)
[8] = test system: corn rootworm; test: Mite/insect screen, CRW; settings: percent mortality, read-out: CRW RESULTS %; for mortality at 12 ppm: CRW rate 12.00 ppm
Outline: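 Compounds were dissolved in 50:50 acetone/alcohol containing sulfonate/nonionic emulsifier blends (23 g/L plus 13 g/L), then diluted with water to the test concentrations. Percent mortality was scored after standard exposure periods.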

[9] = test system: Pseudoperonospora cubensis (downy mildew); test: Test 1 greenhouse foliar spray screen, downy mildew on squash; settings: disease control rating, foliar spray on squash, 400 ppm (+++ at 100 ppm)
[10] = test system: melon aphids (Aphis gossypii Glover); test: Mite/insect screen, MA; settings: Aphis gossypii, foliar, percent mortality, foliar spray on squash, read-out: MA RESULTS %; for mortality at 200 ppm: rate 200 ppm
Outline: as §1

[11] = test system: Twospotted spider mites (Tetranychus urticae Koch); test: Mite/insect screen, SM; settings: Tetranychus urticae, foliar, percent mortality, foliar spray on squash, read-out: SM RESULTS %; for mortality at 200 ppm: rate 200 ppm
Outline: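 Activity is expressed as percent mortality at the indicated spray concentrations. Plants are sprayed to runoff on upper and lower leaf surfaces with aqueous dilutions of an acetone/alcohol emulsifiable formulation, then dried for one hour.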

[12] = test system: Erysiphe graminis tritici (powdery mildew); test: Test 1 greenhouse foliar spray screen, powdery mildew on wheat; settings: disease control rating, foliar spray on wheat, 400 ppm (+++ at 100 ppm)

Row | Structure (SMILES) | mortality at 200 ppm [1] | mortality at 400 ppm ([1]; rate 400 ppm) | LEAF RUST [2] | LEAF BLOT [3] | LEAF SPOT [4] | APPL SCAB [5] | RICE BLAST [6] | GRAY MOLD [7] | mortality at 12 ppm [8] | mortality at 24 ppm ([8]; CRW rate 24.00 ppm) | DOWN MDEW [9] | mortality at 200 ppm [10] | mortality at 400 ppm ([10]; rate 400 ppm) | mortality at 200 ppm [11] | mortality at 400 ppm ([11]; rate 400 ppm) | POWD MDEW [12]
1 | FC(F)(F)c1ccc2c(NCCc3ccc4ccccc4c3)ccnc2c1 [Example 169, N-[2-(2-naphthyl)ethyl]-7-(trifluoromethyl)-4-quinolinamine] | 0% | 0% | + (20-89% control at 400 ppm) | - (0-19% control at 400 ppm) | - (0-19% control at 400 ppm) | - (0-19% control at 400 ppm) | ++ (90-100% control at 400 ppm) | - (0-19% control at 400 ppm) | 0% | 0% | ++ (90-100% control at 400 ppm) | 0% | 0% | 0% | 0% | + (20-89% control at 400 ppm)
2 | CC(Cc1cccs1)Nc1ccnc2c(F)cccc12 (stereo not shown) [Example 170, 8-fluoro-N-[1-methyl-2-(2-thienyl)ethyl]-4-quinolinamine] | 0% | – | ++ (90-100% control at 400 ppm) | - (0-19% control at 400 ppm) | - (0-19% control at 400 ppm) | - (0-19% control at 400 ppm) | + (20-89% control at 400 ppm) | - (0-19% control at 400 ppm) | 0% | – | + (20-89% control at 400 ppm) | 0% | – | 0% | – | + (20-89% control at 400 ppm)
3 | CC(Cc1cccs1)Nc1ccnc2ccccc12 (stereo not shown) [Example 171, N-[1-methyl-2-(2-thienyl)ethyl]-4-quinolinamine] | 0% | – | + (20-89% control at 400 ppm) | + (20-89% control at 400 ppm) | + (20-89% control at 400 ppm) | - (0-19% control at 400 ppm) | + (20-89% control at 400 ppm) | - (0-19% control at 400 ppm) | 0% | – | + (20-89% control at 400 ppm) | 0% | – | 0% | – | - (0-19% control at 400 ppm)
4 | Clc1cccc2c(NCCc3cccs3)ccnc12 [Example 172, 8-chloro-N-[2-(2-thienyl)ethyl]-4-quinolinamine] | 0% | – | + (20-89% control at 400 ppm) | - (0-19% control at 400 ppm) | - (0-19% control at 400 ppm) | - (0-19% control at 400 ppm) | + (20-89% control at 400 ppm) | - (0-19% control at 400 ppm) | 0% | – | + (20-89% control at 400 ppm) | 0% | – | 0% | – | + (20-89% control at 400 ppm)
5 | Fc1cccc2c(NCCC3COc4ccccc4O3)ccnc12 (stereo not shown) [Example 174, N-[2-(2,3-dihydro-1,4-benzodioxin-2-yl)ethyl]-8-fluoro-4-quinolinamine] | 0% | – | ++ (90-100% control at 400 ppm) | + (20-89% control at 400 ppm) | - (0-19% control at 400 ppm) | - (0-19% control at 400 ppm) | + (20-89% control at 400 ppm) | - (0-19% control at 400 ppm) | 0% | – | +++ (90-100% control at 100 ppm) | 0% | – | 0% | – | + (20-89% control at 400 ppm)
